Reference: ChEMBL document CHEMBL4507302, “Data for DCP probe TP-020” (2021)

Columns and labels:
[1] = system: Tyrosine-protein kinase ABL1 (Homo sapiens), P00519 [M351T]; settings: Compound concentration 1000.0 nM
[2] = target: RAC-alpha serine/threonine-protein kinase (Homo sapiens) (UniProt P31749); settings: Compound concentration 1000.0 nM
[3] = target: ALK tyrosine kinase receptor (Homo sapiens) (UniProt Q9UM73); settings: Compound concentration 1000.0 nM
[4] = target: Aurora kinase C (Homo sapiens) (UniProt Q9UQB9); settings: Compound concentration 1000.0 nM
[5] = target: Calcium/calmodulin-dependent protein kinase type II subunit beta (Homo sapiens) (UniProt Q13554); settings: Compound concentration 1000.0 nM
[6] = target: Calcium/calmodulin-dependent protein kinase type II subunit gamma (Homo sapiens) (UniProt Q13555); settings: Compound concentration 1000.0 nM
[7] = target: Calcium/calmodulin-dependent protein kinase type IV (Homo sapiens) (UniProt Q16566); settings: Compound concentration 1000.0 nM
[8] = target: Peripheral plasma membrane protein CASK (Homo sapiens) (UniProt O14936); settings: Compound concentration 1000.0 nM
[9] = target: Cyclin-dependent kinase-like 5 (Homo sapiens) (UniProt O76039); settings: Compound concentration 1000.0 nM
Cyclin-dependent kinase-like 5 (Homo sapiens), sequence (O76039 whole entry): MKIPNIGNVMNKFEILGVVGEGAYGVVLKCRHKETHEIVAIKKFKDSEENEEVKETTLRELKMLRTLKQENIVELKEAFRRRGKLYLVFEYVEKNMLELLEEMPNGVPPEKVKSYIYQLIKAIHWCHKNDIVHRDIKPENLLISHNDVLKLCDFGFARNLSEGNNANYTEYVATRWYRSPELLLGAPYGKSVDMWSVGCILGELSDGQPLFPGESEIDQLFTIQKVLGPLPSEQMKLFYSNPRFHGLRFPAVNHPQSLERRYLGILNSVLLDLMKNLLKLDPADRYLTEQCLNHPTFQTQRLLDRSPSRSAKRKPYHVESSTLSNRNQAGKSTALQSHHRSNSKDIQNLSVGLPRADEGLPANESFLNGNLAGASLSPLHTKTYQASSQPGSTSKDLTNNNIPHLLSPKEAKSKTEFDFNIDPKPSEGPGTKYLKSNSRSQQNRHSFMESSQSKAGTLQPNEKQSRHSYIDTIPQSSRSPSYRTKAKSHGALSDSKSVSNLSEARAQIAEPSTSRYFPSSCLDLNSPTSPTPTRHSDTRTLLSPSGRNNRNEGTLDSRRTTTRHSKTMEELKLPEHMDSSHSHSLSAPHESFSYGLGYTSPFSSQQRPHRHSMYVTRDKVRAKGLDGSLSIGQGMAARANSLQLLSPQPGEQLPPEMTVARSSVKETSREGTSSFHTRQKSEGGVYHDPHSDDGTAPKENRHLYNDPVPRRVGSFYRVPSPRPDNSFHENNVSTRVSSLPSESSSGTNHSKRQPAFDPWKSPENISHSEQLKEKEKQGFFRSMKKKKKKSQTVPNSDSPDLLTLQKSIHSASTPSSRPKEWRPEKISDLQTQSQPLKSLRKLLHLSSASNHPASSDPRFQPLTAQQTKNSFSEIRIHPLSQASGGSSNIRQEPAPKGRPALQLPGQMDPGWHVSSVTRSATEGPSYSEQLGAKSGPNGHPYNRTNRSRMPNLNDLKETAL

[10] = target: Dual specificity protein kinase CLK4 (Homo sapiens) (UniProt Q9HAZ1); settings: Compound concentration 1000.0 nM
[11] = target: Casein kinase I isoform gamma-1 (Homo sapiens) (UniProt Q9HCP0); settings: Compound concentration 1000.0 nM
Casein kinase I isoform gamma-1 (Homo sapiens), sequence (Q9HCP0 whole entry, looked up, canonical isoform): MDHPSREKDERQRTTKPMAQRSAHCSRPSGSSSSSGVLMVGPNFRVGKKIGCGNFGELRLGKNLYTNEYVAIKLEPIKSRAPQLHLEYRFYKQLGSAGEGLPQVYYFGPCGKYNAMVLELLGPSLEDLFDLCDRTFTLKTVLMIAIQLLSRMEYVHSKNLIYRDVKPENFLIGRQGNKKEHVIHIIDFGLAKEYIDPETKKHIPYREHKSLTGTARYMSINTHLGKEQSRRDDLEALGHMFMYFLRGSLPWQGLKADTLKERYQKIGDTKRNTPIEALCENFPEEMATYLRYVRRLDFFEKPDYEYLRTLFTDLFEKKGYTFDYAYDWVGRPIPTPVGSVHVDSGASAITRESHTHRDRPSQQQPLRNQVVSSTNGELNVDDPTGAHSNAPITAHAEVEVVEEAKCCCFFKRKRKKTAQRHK

[12] = target: Serine/threonine-protein kinase DCLK3 (Homo sapiens) (UniProt Q9C098); settings: Compound concentration 1000.0 nM
[13] = target: Epidermal growth factor receptor (Homo sapiens) (UniProt P00533); settings: Compound concentration 1000.0 nM
[14] = system: Epidermal growth factor receptor (Homo sapiens), P00533 [L858R,T790M]; settings: Compound concentration 1000.0 nM
[15] = target: Serine/threonine-protein kinase/endoribonuclease IRE1 (Homo sapiens) (UniProt O75460); settings: Compound concentration 1000.0 nM
[16] = system: Receptor-type tyrosine-protein kinase FLT3 (Homo sapiens), P36888 [D835Y]; settings: Compound concentration 1000.0 nM
[17] = target: Receptor-type tyrosine-protein kinase FLT3 (Homo sapiens) (UniProt P36888); settings: Compound concentration 1000.0 nM
[18] = target: G protein-coupled receptor kinase 4 (Homo sapiens) (UniProt P32298); settings: Compound concentration 1000.0 nM
[19] = target: Insulin receptor-related protein (Homo sapiens) (UniProt P14616); settings: Compound concentration 1000.0 nM
[20] = target: Mitogen-activated protein kinase 10 (Homo sapiens) (UniProt P53779); settings: Compound concentration 1000.0 nM
[21] = target: Serine/threonine-protein kinase LATS1 (Homo sapiens) (UniProt O95835); settings: Compound concentration 1000.0 nM
[22] = target: Mitogen-activated protein kinase kinase kinase kinase 4 (Homo sapiens) (UniProt O95819); settings: Compound concentration 1000.0 nM
[23] = target: MAP/microtubule affinity-regulating kinase 4 (Homo sapiens) (UniProt Q96L34); settings: Compound concentration 1000.0 nM
[24] = target: Myosin-IIIb (Homo sapiens) (UniProt Q8WXR4); settings: Compound concentration 1000.0 nM
[25] = target: Serine/threonine-protein kinase NLK (Homo sapiens) (UniProt Q9UBE8); settings: Compound concentration 1000.0 nM
[26] = target: Mitogen-activated protein kinase 14 (Homo sapiens) (UniProt Q16539); settings: Compound concentration 1000.0 nM
[27] = target: Serine/threonine-protein kinase PAK 3 (Homo sapiens) (UniProt O75914); settings: Compound concentration 1000.0 nM
[28] = target: Platelet-derived growth factor receptor beta (Homo sapiens) (UniProt P09619); settings: Compound concentration 1000.0 nM
[29] = target: Phosphorylase b kinase regulatory subunit alpha, liver isoform (Homo sapiens) (UniProt P46019); settings: Compound concentration 1000.0 nM
Phosphorylase b kinase regulatory subunit alpha, liver isoform (Homo sapiens), sequence (P46019 whole entry, canonical isoform): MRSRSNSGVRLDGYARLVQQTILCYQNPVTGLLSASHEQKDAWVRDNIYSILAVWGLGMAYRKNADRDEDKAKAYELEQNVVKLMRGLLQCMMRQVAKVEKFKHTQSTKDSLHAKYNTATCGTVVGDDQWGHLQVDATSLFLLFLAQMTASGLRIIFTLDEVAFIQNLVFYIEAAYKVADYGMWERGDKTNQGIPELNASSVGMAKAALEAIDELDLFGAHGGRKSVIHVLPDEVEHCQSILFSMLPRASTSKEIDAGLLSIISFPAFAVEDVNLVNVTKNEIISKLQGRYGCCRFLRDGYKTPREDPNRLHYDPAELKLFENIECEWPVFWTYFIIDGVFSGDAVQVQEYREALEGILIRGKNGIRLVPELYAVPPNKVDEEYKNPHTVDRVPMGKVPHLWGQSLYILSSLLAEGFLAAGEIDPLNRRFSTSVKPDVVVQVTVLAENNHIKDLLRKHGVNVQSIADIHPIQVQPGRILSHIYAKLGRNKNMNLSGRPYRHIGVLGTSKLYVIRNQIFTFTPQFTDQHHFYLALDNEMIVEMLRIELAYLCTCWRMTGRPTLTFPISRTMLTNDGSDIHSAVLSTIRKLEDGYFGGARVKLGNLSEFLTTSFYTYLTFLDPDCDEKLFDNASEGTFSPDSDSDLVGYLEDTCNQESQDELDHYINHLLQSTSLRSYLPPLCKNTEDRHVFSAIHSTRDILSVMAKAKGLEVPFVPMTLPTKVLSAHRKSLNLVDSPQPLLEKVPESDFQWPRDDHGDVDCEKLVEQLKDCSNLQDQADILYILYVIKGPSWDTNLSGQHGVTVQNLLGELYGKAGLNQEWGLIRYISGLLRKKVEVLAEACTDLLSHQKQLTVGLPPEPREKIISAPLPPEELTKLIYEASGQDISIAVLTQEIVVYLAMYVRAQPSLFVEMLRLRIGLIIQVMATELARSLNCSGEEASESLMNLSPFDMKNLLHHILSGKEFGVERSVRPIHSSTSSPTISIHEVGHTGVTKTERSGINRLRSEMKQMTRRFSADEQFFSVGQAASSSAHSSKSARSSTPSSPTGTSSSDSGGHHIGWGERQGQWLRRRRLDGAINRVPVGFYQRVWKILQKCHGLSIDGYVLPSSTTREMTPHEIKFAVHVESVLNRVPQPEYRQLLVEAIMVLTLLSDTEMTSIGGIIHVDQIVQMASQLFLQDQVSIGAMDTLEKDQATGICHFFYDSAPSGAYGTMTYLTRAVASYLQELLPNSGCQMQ

[30] = system: Phosphatidylinositol 4,5-bisphosphate 3-kinase catalytic subunit alpha isoform (Homo sapiens), P42336 [E542K]; settings: Compound concentration 1000.0 nM
[31] = system: Phosphatidylinositol 4,5-bisphosphate 3-kinase catalytic subunit alpha isoform (Homo sapiens), P42336 [H1047Y]; settings: Compound concentration 1000.0 nM
Phosphatidylinositol 4,5-bisphosphate 3-kinase catalytic subunit alpha isoform (Homo sapiens), P42336 [H1047Y], sequence (P42336 whole entry H1047Y, canonical isoform): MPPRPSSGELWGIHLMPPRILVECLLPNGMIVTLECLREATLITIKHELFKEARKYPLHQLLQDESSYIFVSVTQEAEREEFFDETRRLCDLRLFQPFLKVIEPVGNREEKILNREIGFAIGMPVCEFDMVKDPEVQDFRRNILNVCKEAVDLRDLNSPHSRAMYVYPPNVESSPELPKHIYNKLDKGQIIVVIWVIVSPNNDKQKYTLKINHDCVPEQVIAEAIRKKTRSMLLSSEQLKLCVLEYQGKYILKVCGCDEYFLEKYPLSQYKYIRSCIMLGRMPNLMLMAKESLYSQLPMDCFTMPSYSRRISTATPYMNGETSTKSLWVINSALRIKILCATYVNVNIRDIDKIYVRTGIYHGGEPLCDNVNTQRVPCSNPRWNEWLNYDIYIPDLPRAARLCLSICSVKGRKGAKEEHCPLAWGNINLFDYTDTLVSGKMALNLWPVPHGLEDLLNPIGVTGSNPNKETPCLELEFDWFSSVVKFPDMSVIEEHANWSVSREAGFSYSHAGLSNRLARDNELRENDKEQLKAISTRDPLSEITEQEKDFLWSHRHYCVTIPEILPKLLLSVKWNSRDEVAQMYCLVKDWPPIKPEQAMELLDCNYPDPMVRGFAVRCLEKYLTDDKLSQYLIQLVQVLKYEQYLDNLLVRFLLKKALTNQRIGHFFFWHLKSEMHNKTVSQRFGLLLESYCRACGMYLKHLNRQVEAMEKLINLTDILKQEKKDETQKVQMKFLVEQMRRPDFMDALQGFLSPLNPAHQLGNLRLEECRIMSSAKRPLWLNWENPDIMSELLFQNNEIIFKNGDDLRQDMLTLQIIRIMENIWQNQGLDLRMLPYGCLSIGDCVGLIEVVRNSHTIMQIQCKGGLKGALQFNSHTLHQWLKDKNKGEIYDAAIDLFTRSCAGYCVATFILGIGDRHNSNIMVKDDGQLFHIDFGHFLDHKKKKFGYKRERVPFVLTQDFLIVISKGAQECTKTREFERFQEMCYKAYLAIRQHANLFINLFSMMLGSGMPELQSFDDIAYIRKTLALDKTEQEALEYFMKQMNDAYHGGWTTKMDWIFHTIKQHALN

[32] = system: Phosphatidylinositol 4,5-bisphosphate 3-kinase catalytic subunit alpha isoform (Homo sapiens), P42336 [Q546K]; settings: Compound concentration 1000.0 nM
[33] = target: cGMP-dependent protein kinase 2 (Homo sapiens) (UniProt Q13237); settings: Compound concentration 1000.0 nM
[34] = target: Ribosomal protein S6 kinase alpha-1 (Homo sapiens) (UniProt Q15418); settings: Compound concentration 1000.0 nM
[35] = target: Ribosomal protein S6 kinase alpha-2 (Homo sapiens) (UniProt Q15349); settings: Compound concentration 1000.0 nM
[36] = target: Uncharacterized serine/threonine-protein kinase SBK3 (Homo sapiens) (UniProt P0C264); settings: Compound concentration 1000.0 nM
[37] = target: Serine/threonine-protein kinase 36 (Homo sapiens) (UniProt Q9NRP7); settings: Compound concentration 1000.0 nM
[38] = target: Serine/threonine-protein kinase tousled-like 1 (Homo sapiens) (UniProt Q9UKI8); settings: Compound concentration 1000.0 nM
[39] = target: Serine/threonine-protein kinase TNNI3K (Homo sapiens) (UniProt Q59H18); settings: Compound concentration 1000.0 nM
Serine/threonine-protein kinase TNNI3K (Homo sapiens), sequence (Q59H18 whole entry): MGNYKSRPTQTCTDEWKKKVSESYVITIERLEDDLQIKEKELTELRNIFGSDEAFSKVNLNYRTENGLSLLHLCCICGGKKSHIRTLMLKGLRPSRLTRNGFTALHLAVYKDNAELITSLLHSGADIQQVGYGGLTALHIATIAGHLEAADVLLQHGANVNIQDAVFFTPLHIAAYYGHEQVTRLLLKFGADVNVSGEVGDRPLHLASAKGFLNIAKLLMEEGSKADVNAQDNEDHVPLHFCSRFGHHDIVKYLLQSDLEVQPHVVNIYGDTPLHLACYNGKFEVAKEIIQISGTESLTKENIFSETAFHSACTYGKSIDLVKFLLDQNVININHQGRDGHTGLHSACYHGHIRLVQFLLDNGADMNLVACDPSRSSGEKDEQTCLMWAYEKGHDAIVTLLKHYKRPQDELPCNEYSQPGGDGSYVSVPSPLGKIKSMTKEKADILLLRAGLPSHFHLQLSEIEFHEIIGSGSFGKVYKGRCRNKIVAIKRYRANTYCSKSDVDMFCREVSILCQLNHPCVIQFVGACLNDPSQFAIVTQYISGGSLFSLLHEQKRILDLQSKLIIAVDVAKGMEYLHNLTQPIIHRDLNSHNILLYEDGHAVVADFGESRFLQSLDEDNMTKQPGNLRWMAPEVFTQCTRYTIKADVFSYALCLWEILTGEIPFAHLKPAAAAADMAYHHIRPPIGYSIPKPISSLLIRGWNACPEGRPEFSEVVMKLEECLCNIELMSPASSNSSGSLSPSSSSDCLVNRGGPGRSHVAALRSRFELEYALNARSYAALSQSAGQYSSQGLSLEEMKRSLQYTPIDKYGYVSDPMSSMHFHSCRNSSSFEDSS

[40] = target: Testis-specific serine/threonine-protein kinase 3 (Homo sapiens) (UniProt Q96PN8); settings: Compound concentration 1000.0 nM
Testis-specific serine/threonine-protein kinase 3 (Homo sapiens), sequence (Q96PN8 whole entry): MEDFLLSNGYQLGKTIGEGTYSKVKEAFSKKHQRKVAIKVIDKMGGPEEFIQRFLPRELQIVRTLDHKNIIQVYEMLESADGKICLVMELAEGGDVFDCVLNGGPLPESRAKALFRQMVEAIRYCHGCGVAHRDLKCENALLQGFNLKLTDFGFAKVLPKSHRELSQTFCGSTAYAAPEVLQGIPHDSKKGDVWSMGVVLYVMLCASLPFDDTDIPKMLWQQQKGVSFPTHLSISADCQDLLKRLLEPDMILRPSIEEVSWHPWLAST

[41] = target: Phosphatidylinositol 3-kinase catalytic subunit type 3 (Homo sapiens) (UniProt Q8NEB9); settings: Compound concentration 1000.0 nM
[42] = target: 5-hydroxytryptamine receptor 2B (Homo sapiens) (UniProt P41595); settings: Compound concentration 10.0 uM
[43] = target: 5-hydroxytryptamine receptor 3A (Homo sapiens) (UniProt P46098); settings: Compound concentration 10.0 uM
[44] = target: Delta-type opioid receptor (Homo sapiens) (UniProt P41143); settings: Compound concentration 10.0 uM

## Nc1cnc(N2CCc3cc(S(=O)(=O)Nc4c(F)cc(Cl)cc4F)cc(N4CCCC4=O)c32)nc1
[1]
  residual activity: 100%
[2]
  residual activity: 100%
[3]
  residual activity: 100%
[4]
  residual activity: 100%
[5]
  residual activity: 100%
[6]
  residual activity: 100%
[7]
  residual activity: 96%
[8]
  residual activity: 94%
[9]
  residual activity: 88%
[10]
  residual activity: 89%
[11]
  residual activity: 97%
[12]
  residual activity: 85%
[13]
  residual activity: 82%
[14]
  residual activity: 77%
[15]
  residual activity: 100%
[16]
  residual activity: 100%
[17]
  residual activity: 91%
[18]
  residual activity: 100%
[19]
  residual activity: 100%
[20]
  residual activity: 94%
[21]
  residual activity: 100%
[22]
  residual activity: 61%
[23]
  residual activity: 79%
[24]
  residual activity: 100%
[25]
  residual activity: 100%
[26]
  residual activity: 100%
[27]
  residual activity: 100%
[28]
  residual activity: 100%
[29]
  residual activity: 100%
[30]
  residual activity: 72%
[31]
  residual activity: 100%
[32]
  residual activity: 78%
[33]
  residual activity: 84%
[34]
  residual activity: 93%
[35]
  residual activity: 88%
[36]
  residual activity: 100%
[37]
  residual activity: 98%
[38]
  residual activity: 100%
[39]
  residual activity: 49%
[40]
  residual activity: 100%
[41]
  residual activity: 100%
[42]
  inhibition: 12.9%
[43]
  inhibition: 0.32%
[44]
  inhibition: -1.24%

## Cn1nc(C(F)(F)F)cc1-c1cnc(N2CCc3cc(S(=O)(=O)Nc4c(F)cc(Cl)cc4F)cc(N4CCCC4=O)c32)nc1 [TP-020]
[1]
  residual activity: 92%
[2]
  residual activity: 100%
[3]
  residual activity: 80%
[4]
  residual activity: 100%
[5]
  residual activity: 92%
[6]
  residual activity: 95%
[7]
  residual activity: 100%
[8]
  residual activity: 77%
[9]
  residual activity: 91%
[10]
  residual activity: 90%
[11]
  residual activity: 100%
[12]
  residual activity: 86%
[13]
  residual activity: 100%
[14]
  residual activity: 100%
[15]
  residual activity: 92%
[16]
  residual activity: 100%
[17]
  residual activity: 100%
[18]
  residual activity: 100%
[19]
  residual activity: 90%
[20]
  residual activity: 100%
[21]
  residual activity: 99%
[22]
  residual activity: 83%
[23]
  residual activity: 88%
[24]
  residual activity: 100%
[25]
  residual activity: 98%
[26]
  residual activity: 100%
[27]
  residual activity: 77%
[28]
  residual activity: 90%
[29]
  residual activity: 96%
[30]
  residual activity: 85%
[31]
  residual activity: 76%
[32]
  residual activity: 82%
[33]
  residual activity: 90%
[34]
  residual activity: 99%
[35]
  residual activity: 100%
[36]
  residual activity: 79%
[37]
  residual activity: 100%
[38]
  residual activity: 78%
[39]
  residual activity: 65%
[40]
  residual activity: 94%
[41]
  residual activity: 78%
[42]
  inhibition: 24.7%
[43]
  inhibition: 7.45%
[44]
  inhibition: 28.7%
